The source of these data is PubChem BioAssay (NCI).

Common to all, as to experiment: NCI-60 cell line screen, 48 h
Assay [1] relates to 786-0 renal.
In assay [2] the test system is A549 NSCLC.
In assay [3] the test system is HL-60(TB) leukemia.
Assay [4] concerns MDA-MB-435.
For assay [5], the system named is OVCAR-5 ovarian.
Assay [6] deals with SK-MEL-2 melanoma.
In assay [7] the test system is SK-MEL-5 melanoma.
In assay [8] the test system is HT29 colon.
Assay [9] has as its system NCI-H226 lung.
The subject of assay [10] is NCI-H522 lung.

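All cell lines were grown in 96-well plates and treated with compound for 48 hours. GI50 marks 50% less growth. TGI: total growth inhibition.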

Regarding `CC1=CC[C@@H]2[C@@H](CC[C@@]2(C)O)C(C)(C)[C@H]1CC[C@@H]1[C@@]2(C)CC[C@@H](O)C(C)(C)O[C@@H]2CC[C@]1(C)O`, the TGI in [1] is 34.8 µM; in assay [2], greater than 100 µM; in assay [3], 40.5 µM; in [4], 57 µM; in assay [5], greater than 100 µM; in [6] it was greater than 100 µM. Further, the TGI in assay [7] stood at 27.8 µM.

In the case of `CN(C)C(=O)C(NCCO)c1ccccc1` (stereo unspecified), the TGI in assay [1], in assay [2], in [8], in assay [4], in assay [9] and in assay [10] was greater than 100 µM throughout. Moreover, the TGI in assay [5], in [6] and in assay [7] was greater than 100 µM in each case.

Turning to `COc1cc(-c2nn(-c3ccc(NC(=O)Nc4ccc(Cl)c(C(F)(F)F)c4)cc3)cc2-c2ccncc2)ccc1Cl`, the GI50 in [1] is 1.8 µM; in [2], 2.66 µM; in assay [4], 1.6 µM; in assay [9], 2.14 µM; in [5], 1.94 µM; in [7] it was 1.56 µM. The TGI in assay [1] came out at 4.27 µM; in [2], 11.4 µM; in assay [4], 3.54 µM; in assay [9] it was 7.22 µM; in assay [5], 5.68 µM; in assay [7], 2.94 µM.

As for `CN(Cc1ccccc1)c1ncnc2ccc(Br)cc12`, the GI50 in [1] is 13.5 µM; in assay [2], 17.5 µM; in [4], 4.67 µM; in assay [9], 13.8 µM; in [10] it was 23.1 µM; in assay [5], 15.3 µM. In addition, the GI50 in assay [6] was 35.7 µM; in [7], 11.8 µM. Besides, the TGI in assay [1] was 26.3 µM; in [2], 45.8 µM; in assay [4], 16.6 µM; in assay [9], 39.1 µM; in assay [10], greater than 100 µM; in assay [5] it was 31.3 µM. Further, the TGI is greater than 100 µM in assay [6] and 24.1 µM in [7].

For the molecule `CCCCCCN(CCCCCC)C1=CC(=O)C(=O)c2ccccc21`, the TGI worked out at 30.3 µM in assay [1]; 36.5 µM in [2]; 34.6 µM in [3]; 35.6 µM in assay [8]; 34.7 µM in [9]; 24.2 µM in [10]. Further, the TGI in assay [5] is 33.2 µM; in assay [6] it was 35.1 µM; in [7] it was 30.9 µM.

`N#Cc1c(N)n(C2OC(CO)C(O)C2O)c2ncnc(N)c12` (stereo unspecified): the TGI in [1] is 5.55 µM; in assay [8] it was greater than 100 µM; in [4] it was 0.0891 µM; in assay [9], 0.372 µM; in assay [5] it was 3.28 µM; in [7], 0.279 µM.

Take `COc1ccc(C(=O)OC2C(OC3C(O)COC(O[C@H]4C[C@H]5[C@@H]6CC=C7C[C@@H](O)CC[C@]7(C)[C@H]6CC[C@]5(C)[C@H]4[C@H](C)C(=O)CCC(C)C)C3OC(=O)C(C)C)OCC(O)C2O)cc1` (stereo partly specified): the GI50 in assay [1] was less than 0.00275 µM; in assay [2], 0.0224 µM; in assay [8], 0.0507 µM; in [4], 0.0154 µM; in assay [10], 0.0306 µM; in [5] it was 0.204 µM. The GI50 in [6] was 0.0102 µM; in assay [7], 0.019 µM. For the same molecule, the TGI in [1] was 2.99 µM; in assay [2], 4.58 µM; in assay [8], 4.85 µM; in assay [4], 0.216 µM; in assay [10], 0.273 µM; in assay [5], 5.22 µM. Besides, the figures for the TGI in [6] and in assay [7] were 0.213 µM and 0.36 µM, respectively.

With `COc1ccc(Nc2[nH]n(C3=Nc4ccccc4Sc4ccccc43)c(=O)c2C#N)cc1`, the GI50 was 2.67 µM in [1]; 1.62 µM in [2]; 1.99 µM in [8]; 1.13 µM in assay [4]; 1.48 µM in [9]; 0.4 µM in assay [10]. For the same molecule, the GI50 in assay [5] is 10.8 µM; in assay [6], 1.74 µM; in assay [7], 0.396 µM. Further, the TGI is 22.3 µM in assay [1]; greater than 100 µM in [2]; 9.35 µM in assay [8]; 3.99 µM in assay [4]; 9.81 µM in assay [9]; 3.87 µM in assay [10]. Also, the figures for the TGI in assay [5], in assay [6] and in assay [7] were greater than 100 µM, 5 µM and 1.48 µM, respectively.

As for `O=C(NCCN1CCOCC1)Nc1nc2ccc(Sc3nnc4ccc(-c5ccc(F)cc5)nn34)cc2s1`, the GI50 was 1.59 µM in assay [1]; greater than 100 µM in [2]; 2.79 µM in assay [8]; 3.67 µM in assay [9]; 26.4 µM in assay [10]; greater than 39 µM in assay [5]. Also, the GI50 in [6] is greater than 44.3 µM. For the same molecule, the TGI in assay [1] is 5.39 µM; in assay [2], greater than 100 µM; in [8] it was greater than 24.2 µM; in assay [4] it was greater than 100 µM; in [9], greater than 100 µM; in assay [10], greater than 100 µM. For the same molecule, the TGI in assay [5] is greater than 100 µM; in [6], greater than 91.2 µM; in assay [7], greater than 28.6 µM.

Consider `Nc1nc(=O)c2[nH]cnc2n1O`, for which the TGI in [1], in assay [2], in assay [3], in assay [8], in assay [9] and in assay [10] was greater than 100 µM each time. For the same molecule, the TGI in assay [5], in assay [6] and in [7] was greater than 100 µM throughout.

With `N=C(N)c1ccc(CS(=O)(=O)F)cc1`, the GI50 in assay [1], in assay [2], in assay [8], in [4], in assay [9] and in assay [10] was greater than 100 µM each time. Further, the GI50 in assay [5], in assay [6] and in assay [7] was greater than 100 µM in each case. Besides, the TGI in [1], in [2], in assay [8], in assay [4], in assay [9] and in assay [10] was greater than 100 µM throughout. Besides, the TGI in assay [5], in assay [6] and in assay [7] was greater than 100 µM each time.
